Several values for one entry are separate records, joined by “and”; a condition that tells them apart may be missing. Equal values may be shown once. Toxic doses and inconclusive results are not listed. Rule for the calls: active = survival T/C of 150% or more; inactive = T/C below 125% in these data. Residues, ends and D or L forms follow the SMILES beside them. *: point of attachment. Cbz = O=C(OCc1ccccc1)*
Test system: CD2F1 mice, L1210 leukemia ip, survival T/C
Experiment: NCI In Vivo Anticancer Drug Screen. Data for tumor model L1210 Leukemia (intraperitoneal) in CD2F1 (CDF1) mice
Settings: higher = longer survival
Procedure, shortened: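 Transplantable tumor in mice; compound-treated vs vehicle-treated groups. Read-out = treated/control ratio of the measured endpoint.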

[1] = endpoint: mean survival time, dose: 100.0 mg/kg/injection, schedule: Q01DX001 (ip), vehicle: saline
[2] = endpoint: mean survival time, dose: 200.0 mg/kg/injection, schedule: Q01DX001 (ip), vehicle: saline
[3] = endpoint: mean survival time, dose: 400.0 mg/kg/injection, schedule: Q01DX001 (ip), vehicle: saline
[4] = endpoint: mean survival time, dose: 50.0 mg/kg/injection, schedule: Q01DX009 (ip), vehicle: saline with Tween-80
[5] = endpoint: mean survival time, dose: 100.0 mg/kg/injection, schedule: Q01DX009 (ip), vehicle: saline with Tween-80
[6] = endpoint: mean survival time, dose: 200.0 mg/kg/injection, schedule: Q01DX009 (ip), vehicle: saline with Tween-80
[7] = endpoint: mean survival time, dose: 100.0 mg/kg/injection, schedule: Q04DX003 (ip), vehicle: saline with Tween-80
[8] = endpoint: mean survival time, dose: 200.0 mg/kg/injection, schedule: Q04DX003 (ip), vehicle: saline with Tween-80
[9] = endpoint: mean survival time, dose: 400.0 mg/kg/injection, schedule: Q01DX009 (ip), vehicle: saline with Tween-80
[10] = endpoint: mean survival time, dose: 400.0 mg/kg/injection, schedule: Q04DX003 (ip), vehicle: saline with Tween-80
[11] = endpoint: mean survival time, dose: 100.0 mg/kg/injection, schedule: Q04DX002 (ip), vehicle: saline with Tween-80
[12] = endpoint: mean survival time, dose: 200.0 mg/kg/injection, schedule: Q04DX002 (ip), vehicle: saline with Tween-80
[13] = endpoint: mean survival time, dose: 400.0 mg/kg/injection, schedule: Q04DX002 (ip), vehicle: saline with Tween-80

Measured: T/C

NC(=S)/C(N)=N/Nc1ccc(Cl)cc1
inactive: endpoint: mean survival time, dose: 0.39 mg/kg/injection, schedule: Q01DX009 (ip), vehicle: saline 101 % of control | endpoint: mean survival time, dose: 0.78 mg/kg/injection, schedule: Q01DX009 (ip), vehicle: saline 104 % of control | endpoint: mean survival time, dose: 1.56 mg/kg/injection, schedule: Q01DX009 (ip), vehicle: saline 108 % of control | endpoint: mean survival time, dose: 3.12 mg/kg/injection, schedule: Q01DX009 (ip), vehicle: saline 107 % of control | endpoint: mean survival time, dose: 6.25 mg/kg/injection, schedule: Q01DX009 (ip), vehicle: saline 96 % of control and 110 % of control | endpoint: mean survival time, dose: 12.5 mg/kg/injection, schedule: Q01DX009 (ip), vehicle: saline 113 % of control and 93 % of control | endpoint: mean survival time, dose: 25.0 mg/kg/injection, schedule: Q01DX009 (ip), vehicle: saline 100 % of control | endpoint: mean survival time, dose: 50.0 mg/kg/injection, schedule: Q01DX009 (ip), vehicle: saline 100 % of control

CCCCCc1ccc(C#N)cc1
inactive: endpoint: mean survival time, dose: 50.0 mg/kg/injection, schedule: Q01DX001 (ip), vehicle: saline 100 % of control | [1] 97 % of control | [2] 89 % of control | [3] 93 % of control

CCCCC(CC)CO.[Ti] (stereo not given)
inactive: [4] 103 % of control | [5] 106 % of control | [6] 97 % of control

O=C(O)CCn1ccccc1=O
inactive: [5] 94 % of control | [7] 95 % of control | [6] 93 % of control | [8] 96 % of control | [9] 94 % of control | [10] 95 % of control

CC(=O)Nc1ccc(C(=O)O)cc1
inactive: [7] 96 % of control | [8] 98 % of control | [10] 100 % of control

CCCCCOc1ccc(Cl)cc1Cl
inactive: [11] 86 % of control | [12] 101 % of control | [13] 109 % of control

CN=C(c1ccccc1)C1(O)CC2CCC1C2 (stereo not given)
inactive: [1] 101 % of control | [2] 98 % of control | [3] 101 % of control

O=C1CC(=O)N2C=CC=CC2=N1
inactive: endpoint: mean survival time, dose: 100.0 mg/kg/injection, schedule: Q04DX002 (ip), vehicle: saline 122 % of control | endpoint: mean survival time, dose: 200.0 mg/kg/injection, schedule: Q04DX002 (ip), vehicle: saline 96 % of control | endpoint: mean survival time, dose: 400.0 mg/kg/injection, schedule: Q04DX002 (ip), vehicle: saline 92 % of control

Cc1cn(C2CC(O)C(CO)O2)c(=O)nc1NCc1cccs1 (stereo not given)
inactive: endpoint: median survival time, dose: 12.5 mg/kg/injection, schedule: Q01DX005 (ip), vehicle: water 103 % of control | endpoint: median survival time, dose: 25.0 mg/kg/injection, schedule: Q01DX005 (ip), vehicle: water 105 % of control | endpoint: median survival time, dose: 50.0 mg/kg/injection, schedule: Q01DX005 (ip), vehicle: water 106 % of control | endpoint: median survival time, dose: 100.0 mg/kg/injection, schedule: Q01DX005 (ip), vehicle: water 101 % of control | endpoint: median survival time, dose: 200.0 mg/kg/injection, schedule: Q01DX005 (ip), vehicle: water 103 % of control

CCCCCCCCCCCCCCn1cnc2ncnc(Cl)c21
inactive: endpoint: mean survival time, dose: 6.25 mg/kg/injection, schedule: Q01DX005 (ip), vehicle: distilled water + Tween-80 100 % of control | endpoint: mean survival time, dose: 12.5 mg/kg/injection, schedule: Q01DX005 (ip), vehicle: distilled water + Tween-80 100 % of control | endpoint: mean survival time, dose: 25.0 mg/kg/injection, schedule: Q01DX005 (ip), vehicle: distilled water + Tween-80 93 % of control | endpoint: mean survival time, dose: 50.0 mg/kg/injection, schedule: Q01DX005 (ip), vehicle: distilled water + Tween-80 90 % of control | endpoint: mean survival time, dose: 100.0 mg/kg/injection, schedule: Q01DX005 (ip), vehicle: distilled water + Tween-80 91 % of control

Nc1ncnc2c1ncn2C1OC(C[Se](=O)c2ccccc2)C(O)C1O (stereo not given)
inactive: endpoint: median survival time, dose: 12.5 mg/kg/injection, schedule: Q01DX005 (ip), vehicle: Klucel (hydroxypropylcellulose) (HPC) 102 % of control | endpoint: median survival time, dose: 25.0 mg/kg/injection, schedule: Q01DX005 (ip), vehicle: Klucel (hydroxypropylcellulose) (HPC) 106 % of control | endpoint: median survival time, dose: 50.0 mg/kg/injection, schedule: Q01DX005 (ip), vehicle: Klucel (hydroxypropylcellulose) (HPC) 103 % of control | endpoint: median survival time, dose: 100.0 mg/kg/injection, schedule: Q01DX005 (ip), vehicle: Klucel (hydroxypropylcellulose) (HPC) 103 % of control | endpoint: median survival time, dose: 200.0 mg/kg/injection, schedule: Q01DX005 (ip), vehicle: Klucel (hydroxypropylcellulose) (HPC) 104 % of control

C[S+](C)CCC(N)C(=O)O (stereo not given)
inactive: endpoint: median survival time, dose: 3.13 mg/kg/injection, schedule: Q04DX002 (ip), vehicle: saline 105 % of control | endpoint: median survival time, dose: 6.25 mg/kg/injection, schedule: Q04DX002 (ip), vehicle: saline 105 % of control | endpoint: median survival time, dose: 12.5 mg/kg/injection, schedule: Q04DX002 (ip), vehicle: saline 108 % of control | endpoint: median survival time, dose: 25.0 mg/kg/injection, schedule: Q04DX002 (ip), vehicle: saline 100 % of control | endpoint: median survival time, dose: 50.0 mg/kg/injection, schedule: Q04DX002 (ip), vehicle: saline 117 % of control

CCOC(=O)c1c(C)c2c(n1C)CC/C(=C\N1CCN(c3ccccc3)CC1)C2=O
inactive: [11] 93 % of control | [12] 89 % of control | [13] 86 % of control

CC(C)CC(NC(=O)C(C)NC(=O)OCc1ccccc1)C(N)=O (stereo not drawn) (Cbz-Ala-Leu-NH2; configuration not given here)
inactive: [5] 89 % of control

CC1(C)N=C(N)N=C(N)N1c1ccc(CC(=O)Nc2ccc(S(=O)(=O)F)cc2)cc1
inactive: [1] 102 % of control | [2] 97 % of control | [3] 96 % of control

CCOC(=O)C1=C(C)NC(C)=C(C(=O)OCC)C1c1ccccn1
inactive: endpoint: mean survival time, dose: 50.0 mg/kg/injection, schedule: Q01DX009 (ip), vehicle: Klucel (hydroxypropylcellulose) (HPC) 94 % of control | endpoint: mean survival time, dose: 100.0 mg/kg/injection, schedule: Q01DX009 (ip), vehicle: Klucel (hydroxypropylcellulose) (HPC) 91 % of control | endpoint: mean survival time, dose: 200.0 mg/kg/injection, schedule: Q01DX009 (ip), vehicle: Klucel (hydroxypropylcellulose) (HPC) 89 % of control

CCOC(=O)c1nc(SC)n(C)c1C(=O)OCC
inactive: [11] 94 % of control | [12] 105 % of control

COCc1nnc2nc[nH]c(=O)c2n1
inactive: endpoint: mean survival time, dose: 100.0 mg/kg/injection, schedule: Q01DX001 (ip), vehicle: carboxymethylcellulose (CMC) 98 % of control | endpoint: mean survival time, dose: 200.0 mg/kg/injection, schedule: Q01DX001 (ip), vehicle: carboxymethylcellulose (CMC) 101 % of control

CCC(=O)Nc1ccccc1Cl
inactive: [7] 103 % of control | [8] 100 % of control | [10] 100 % of control

CC(=O)c1cc([N+](=O)[O-])ccc1O
inactive: endpoint: mean survival time, dose: 25.0 mg/kg/injection, schedule: Q01DX009 (ip), vehicle: saline with Tween-80 90 % of control | [4] 90 % of control | [5] 88 % of control | [7] 97 % of control

COC(c1ccccc1)C(Br)c1ccccc1 (stereo not given)
inactive: [5] 97 % of control | endpoint: mean survival time, dose: 100.0 mg/kg/injection, schedule: Q04DX003 (ip), vehicle: saline sonified 103 % of control | [6] 97 % of control | endpoint: mean survival time, dose: 200.0 mg/kg/injection, schedule: Q04DX003 (ip), vehicle: saline sonified 100 % of control | [9] 109 % of control | endpoint: mean survival time, dose: 400.0 mg/kg/injection, schedule: Q04DX003 (ip), vehicle: saline sonified 105 % of control
